Assay results published in patent US8183351B2, “Avermectin derivatives” (Bayer Cropscience AG, priority 2006, dated 2012).

How the values were obtained:
[1] = system: larvae of the mustard beetle (Phaedon cochleariae); assay: Phaedon test (PHAECO spray treatment); format: in vivo; conditions: 4 ppm active compound, sprayed Chinese cabbage discs
Method: Phaedon Test (PHAECO Spray Treatment)
• Solvents: 78 parts by weight of acetone • 1.5 parts by weight of dimethylformamide • Emulsifier: 0.5 part by weight of alkylaryl polyglyycol ether
After the desired period of time, the effect in % is determined. 100% means that all beetle larvae have been killed; 0% means that none of the beetle larvae have been killed.

[2] = system: caterpillars of the army worm (Spodoptera frugiperda); assay: Spodoptera frugiperda test (SPODFR spray treatment); format: in vivo; conditions: Example I; 4 ppm active compound; sprayed maize leaf discs
Method: Spodoptera frugiperda Test (SPODFR Spray Treatment)
• Solvents: 78.0 parts by weight of acetone • 1.5 parts by weight of dimethylformamide • Emulsifier: 0.5 part by weight of alkylaryl polyglyycol ether
After the desired period of time, the effect in % is determined. 100% means that all caterpillars have been killed; 0% means that none of the caterpillars have been killed.

SMILES	Kill rate in % after 7 days ([1]; Example G) [%]	Kill rate in % after 5 days [2] [%]	also measured
CCC(C)C1OC2(C=CC1C)CC1CC(CC=C(C)C(OC3CC(OC)C(OC(=O)C(C)N4CCN(C(=O)OC(C)(C)C)CC4)C(C)O3)C(C)C=CC=C3COC4C(O)C(C)=CC(C(=O)O1)C34O)O2 (mixture of isomers) [Example 77]	100		
CC[C@H](C)[C@H]1O[C@]2(C=C[C@@H]1C)C[C@@H]1C[C@@H](C/C=C(\C)[C@@H](O[C@H]3C[C@H](OC)[C@@H](OC(=O)c4ccc(Cl)cc4)[C@H](C)O3)[C@@H](C)/C=C/C=C3\CO[C@@H]4[C@H](O)C(C)=C[C@@H](C(=O)O1)[C@]34O)O2 [4′-O-(4-chlorobenzoyl)-4′-O-de(2,6-dideoxy-3-O-methyl-α-L-arabino-hexopyranosyl)-5-O-demethyl-avermectin A1a, reference compound]		0	
CC[C@H](C)[C@H]1OC2(C=C[C@@H]1C)C[C@@H]1C[C@@H](C/C=C(\C)[C@@H](OC3CC(OC)C(OC(=O)Cn4ccnn4)C(C)O3)[C@@H](C)/C=C/C=C3\CO[C@@H]4[C@H](O)C(C)=CC(C(=O)O1)[C@]34O)O2 (stereo partly drawn) [Example 3]			Kill rate in % after 7 days ([1]; Example D): 80%
CC[C@H](C)[C@H]1OC2(CC[C@@H]1C)C[C@@H]1C[C@@H](C/C=C(\C)[C@@H](OC3CC(OC)C(OC(=O)Cn4cccn4)C(C)O3)[C@@H](C)/C=C/C=C3\CO[C@@H]4[C@H](O)C(C)=CC(C(=O)O1)[C@]34O)O2 (stereo partly drawn) [Example 22]	100		
CC[C@H](C)[C@H]1OC2(C=C[C@@H]1C)C[C@@H]1C[C@@H](C/C=C(\C)[C@@H](OC3CC(OC)C(OC(=O)COC)C(C)O3)[C@@H](C)/C=C/C=C3\CO[C@@H]4[C@H](O)C(C)=CC(C(=O)O1)[C@]34O)O2 (stereo partly drawn) [Example 30]		100	
CC[C@H](C)[C@H]1OC2(C=C[C@@H]1C)C[C@@H]1C[C@@H](C/C=C(\C)[C@@H](OC3CC(OC)C(OC(=O)CC4CCCO4)C(C)O3)[C@@H](C)/C=C/C=C3\CO[C@@H]4[C@H](O)C(C)=CC(C(=O)O1)[C@]34O)O2 (stereo partly drawn) [Example 31]	100		
CC[C@H](C)[C@H]1OC2(C=C[C@@H]1C)C[C@@H]1C[C@@H](C/C=C(\C)[C@@H](OC3CC(OC)C(OC(=O)C4CC4(Cl)Cl)C(C)O3)[C@@H](C)/C=C/C=C3\CO[C@@H]4[C@H](O)C(C)=CC(C(=O)O1)[C@]34O)O2 (stereo partly drawn) [Example 37]	100		
CC[C@H](C)[C@H]1OC2(C=C[C@@H]1C)C[C@@H]1C[C@@H](C/C=C(\C)[C@@H](OC3CC(OC)C(OC(=O)C4CCC(=O)N4)C(C)O3)[C@@H](C)/C=C/C=C3\CO[C@@H]4[C@H](O)C(C)=CC(C(=O)O1)[C@]34O)O2 (stereo partly drawn) [Example 38]		100	
CC[C@H](C)[C@H]1OC2(C=C[C@@H]1C)C[C@@H]1C[C@@H](C/C=C(\C)[C@@H](OC3CC(OC)C(OC(=O)COc4ccc(Cl)cc4)C(C)O3)[C@@H](C)/C=C/C=C3\CO[C@@H]4[C@H](O)C(C)=CC(C(=O)O1)[C@]34O)O2 (stereo partly drawn) [Example 39]		100	
CC[C@H](C)[C@H]1OC2(C=C[C@@H]1C)C[C@@H]1C[C@@H](C/C=C(\C)[C@@H](OC3CC(OC)C(OC(=O)Cn4nc(C(F)(F)F)cc4OC)C(C)O3)[C@@H](C)/C=C/C=C3\CO[C@@H]4[C@H](O)C(C)=CC(C(=O)O1)[C@]34O)O2 (stereo partly drawn) [Example 41]	83		
CC[C@H](C)[C@H]1OC2(C=C[C@@H]1C)C[C@@H]1C[C@@H](C/C=C(\C)[C@@H](OC3CC(OC)C(OC(=O)Cc4c(C)noc4C)C(C)O3)[C@@H](C)/C=C/C=C3\CO[C@@H]4[C@H](O)C(C)=CC(C(=O)O1)[C@]34O)O2 (stereo partly drawn) [Example 43]	100		
CC[C@H](C)[C@H]1OC2(C=C[C@@H]1C)C[C@@H]1C[C@@H](C/C=C(\C)[C@@H](OC3CC(OC)C(OC(=O)Cn4c(C)ccc4C)C(C)O3)[C@@H](C)/C=C/C=C3\CO[C@@H]4[C@H](O)C(C)=CC(C(=O)O1)[C@]34O)O2 (stereo partly drawn) [Example 44]	100		
CC[C@H](C)[C@H]1OC2(C=C[C@@H]1C)C[C@@H]1C[C@@H](C/C=C(\C)[C@@H](OC3CC(OC)C(OC(=O)Cc4csc(-c5ccncc5)n4)C(C)O3)[C@@H](C)/C=C/C=C3\CO[C@@H]4[C@H](O)C(C)=CC(C(=O)O1)[C@]34O)O2 (stereo partly drawn) [Example 46]		100	
CC[C@H](C)[C@H]1OC2(C=C[C@@H]1C)C[C@@H]1C[C@@H](C/C=C(\C)[C@@H](OC3CC(OC)C(OC(=O)Cc4nc(C)sc4C)C(C)O3)[C@@H](C)/C=C/C=C3\CO[C@@H]4[C@H](O)C(C)=CC(C(=O)O1)[C@]34O)O2 (stereo partly drawn) [Example 47]		100	
CC[C@H](C)[C@H]1OC2(C=C[C@@H]1C)C[C@@H]1C[C@@H](C/C=C(\C)[C@@H](OC3CC(OC)C(OC(=O)Cn4ccnc4)C(C)O3)[C@@H](C)/C=C/C=C3\CO[C@@H]4[C@H](O)C(C)=CC(C(=O)O1)[C@]34O)O2 (stereo partly drawn) [Example 49]		100	
CC[C@H](C)[C@H]1OC2(C=C[C@@H]1C)C[C@@H]1C[C@@H](C/C=C(\C)[C@@H](OC3CC(OC)C(OC(=O)CN4CCC(NC(=O)OC(C)(C)C)CC4)C(C)O3)[C@@H](C)/C=C/C=C3\CO[C@@H]4[C@H](O)C(C)=CC(C(=O)O1)[C@]34O)O2 (stereo partly drawn) [Example 51]	100		
CC[C@H](C)[C@H]1OC2(C=C[C@@H]1C)C[C@@H]1C[C@@H](C/C=C(\C)[C@@H](OC3CC(OC)C(OC(=O)CN4CCN(C(=O)OC(C)(C)C)CC4)C(C)O3)[C@@H](C)/C=C/C=C3\CO[C@@H]4[C@H](O)C(C)=CC(C(=O)O1)[C@]34O)O2 (stereo partly drawn) [Example 53, 4′-O-{[4-(tert-Butoxycarbonyl)piperazin-1-yl]acetyl}-avermectin B1 monosaccharide]	100		
CC[C@H](C)[C@H]1OC2(C=C[C@@H]1C)C[C@@H]1C[C@@H](C/C=C(\C)[C@@H](OC3CC(OC)C(OC(=O)C(C)n4ccnn4)C(C)O3)[C@@H](C)/C=C/C=C3\CO[C@@H]4[C@H](O)C(C)=CC(C(=O)O1)[C@]34O)O2 (stereo partly drawn) [Example 56]	100		
CC[C@H](C)[C@H]1OC2(C=C[C@@H]1C)C[C@@H]1C[C@@H](C/C=C(\C)[C@@H](OC3CC(OC)C(OC(=O)C(C)n4ccnc4)C(C)O3)[C@@H](C)/C=C/C=C3\CO[C@@H]4[C@H](O)C(C)=CC(C(=O)O1)[C@]34O)O2 (stereo partly drawn) [Example 58]	100		
CC[C@H](C)[C@H]1OC2(C=C[C@@H]1C)C[C@@H]1C[C@@H](C/C=C(\C)[C@@H](OC3CC(OC)C(OC(=O)C(C)n4ccnn4)C(C)O3)[C@@H](C)/C=C/C=C3\CO[C@@H]4[C@H](O)C(C)=CC(C(=O)O1)[C@]34O)O2 (stereo partly drawn) [Example 61]	100		
CC[C@H](C)[C@H]1OC2(C=C[C@@H]1C)C[C@@H]1C[C@@H](C/C=C(\C)[C@@H](OC3CC(OC)C(OC(=O)C(C)n4cccn4)C(C)O3)[C@@H](C)/C=C/C=C3\CO[C@@H]4[C@H](O)C(C)=CC(C(=O)O1)[C@]34O)O2 (stereo partly drawn) [Example 62]	100		
CC[C@H](C)[C@H]1OC2(C=C[C@@H]1C)C[C@@H]1C[C@@H](C/C=C(\C)[C@@H](OC3CC(OC)C(OC(=O)Cn4nc(C)n(C)c4=O)C(C)O3)[C@@H](C)/C=C/C=C3\CO[C@@H]4[C@H](O)C(C)=CC(C(=O)O1)[C@]34O)O2 (stereo partly drawn) [Example 63]	100		
CC[C@H](C)[C@H]1OC2(C=C[C@@H]1C)C[C@@H]1C[C@@H](C/C=C(\C)[C@@H](OC3CC(OC)C(OC(=O)Cn4nc(OC)n(C)c4=O)C(C)O3)[C@@H](C)/C=C/C=C3\CO[C@@H]4[C@H](O)C(C)=CC(C(=O)O1)[C@]34O)O2 (stereo partly drawn) [Example 64]	100		
CC[C@H](C)[C@H]1OC2(C=C[C@@H]1C)C[C@@H]1C[C@@H](C/C=C(\C)[C@@H](OC3CC(OC)C(OC(=O)Cc4ccccn4)C(C)O3)[C@@H](C)/C=C/C=C3\CO[C@@H]4[C@H](O)C(C)=CC(C(=O)O1)[C@]34O)O2 (stereo partly drawn) [Example 65]	100		
CC[C@H](C)[C@H]1OC2(C=C[C@@H]1C)C[C@@H]1C[C@@H](C/C=C(\C)[C@@H](OC3CC(OC)C(OC(=O)CN4CCOCC4)C(C)O3)[C@@H](C)/C=C/C=C3\CO[C@@H]4[C@H](O)C(C)=CC(C(=O)O1)[C@]34O)O2 (stereo partly drawn) [Example 79]	100		
CC[C@H](C)[C@H]1OC2(C=C[C@@H]1C)C[C@@H]1C[C@@H](C/C=C(\C)[C@@H](OC3CC(OC)C(OC(=O)CCn4ccnc4)C(C)O3)[C@@H](C)/C=C/C=C3\CO[C@@H]4[C@H](O)C(C)=CC(C(=O)O1)[C@]34O)O2 (stereo partly drawn) [Example 86]		100	
CC[C@H](C)[C@H]1OC2(C=C[C@@H]1C)C[C@@H]1C[C@@H](C/C=C(\C)[C@@H](OC3CC(OC)C(OC(=O)c4ccc(OC(F)(F)F)cc4)C(C)O3)[C@@H](C)/C=C/C=C3\CO[C@@H]4[C@H](O)C(C)=CC(C(=O)O1)[C@]34O)O2 (stereo partly drawn) [Example 97]		33	
CC[C@H](C)[C@H]1OC2(C=C[C@@H]1C)C[C@@H]1C[C@@H](C/C=C(\C)[C@@H](OC3CC(OC)C(OC(=O)c4ccc(F)cc4)C(C)O3)[C@@H](C)/C=C/C=C3\CO[C@@H]4[C@H](O)C(C)=CC(C(=O)O1)[C@]34O)O2 (stereo partly drawn) [Example 99]		100	
CC[C@H](C)[C@H]1OC2(C=C[C@@H]1C)C[C@@H]1C[C@@H](C/C=C(\C)[C@@H](OC3CC(OC)C(OC(=O)CN4CCNCC4)C(C)O3)[C@@H](C)/C=C/C=C3\CO[C@@H]4[C@H](O)C(C)=CC(C(=O)O1)[C@]34O)O2 (stereo partly drawn) [Example 101, 4′-O-(piperazin-1-ylacetyl)-avermectin B1 monosaccharide]	100		
CC[C@H](C)[C@H]1OC2(C=C[C@@H]1C)C[C@@H]1C[C@@H](C/C=C(\C)[C@@H](OC3CC(OC)C(OC(=O)CNC)C(C)O3)[C@@H](C)/C=C/C=C3\CO[C@@H]4[C@H](O)C(C)=CC(C(=O)O1)[C@]34O)O2 (stereo partly drawn) [Example 104]	100		
